{
  "source": "patent US7404945B2",
  "about": "“Method of evaluating pharmacological effects of medicine” (Tokyo Gas Company Limited, priority 2002, dated 2008)",
  "format_in_all_cases": "in vivo",
  "key": {"α-glucosidase": {"system": "α-glucosidase", "test": "Glc-[U-13C]Glc breath test", "settings": "rats, n=2", "description": "The pharmacological effect of acarbose is the inhibition of α-glucosidase. Glc-[U-^13C]Glc (see Production Example 2) which is a substrate for α-glucosidase is provided as a pharmacological effect diagnostic reagent and a screening reagent."}, "DOPA decarboxylase": {"molecular_target": "T1, DOPA decarboxylase (Rattus norvegicus, UniProt P14173)", "T1 construct": "from tissue; host or cells: living rat (whole-animal breath test)", "T1 sequence (P14173 1-480)": "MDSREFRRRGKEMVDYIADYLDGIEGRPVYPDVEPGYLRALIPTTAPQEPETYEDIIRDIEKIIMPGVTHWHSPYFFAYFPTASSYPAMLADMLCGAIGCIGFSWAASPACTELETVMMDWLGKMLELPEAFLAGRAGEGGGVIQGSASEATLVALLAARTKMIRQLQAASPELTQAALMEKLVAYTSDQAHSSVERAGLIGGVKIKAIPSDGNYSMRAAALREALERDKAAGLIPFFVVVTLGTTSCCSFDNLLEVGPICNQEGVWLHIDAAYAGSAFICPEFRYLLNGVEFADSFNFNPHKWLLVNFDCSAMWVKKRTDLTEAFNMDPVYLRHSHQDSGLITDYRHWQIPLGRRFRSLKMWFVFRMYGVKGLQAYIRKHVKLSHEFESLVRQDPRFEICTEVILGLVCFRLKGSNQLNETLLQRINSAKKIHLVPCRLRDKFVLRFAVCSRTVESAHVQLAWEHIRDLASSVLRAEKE", "test": "[1-13C]DOPA breath test", "settings": "rats", "method": "The pharmacological effect of benserazide is the inhibition of DOPA decarboxylase. [1-^13C]DOPA (see Production Example 1) which is a substrate for DOPA decarboxylase is provided as a pharmacological effect diagnostic reagent and a screening reagent. Comparison was made in the [1-^13C]DOPA breath test on rats which were administered intraperitoneally with benserazide hydrochloride (Sigma) at a dose of 50 mg/kg three times (i.e., in the morning and evening of the day before the [1-^13C]DOPA breath test and 30 minutes before the breath test was started on the day of the test) (administration group) and rats without administration (control group).\nThe rats of the administration group and the control group which had been fasted overnight were fixed supinely under anesthesia. […] When the CO2 concentration stabilized, [1-^13C]DOPA was administered at a dose of 50 mg/kg through the femoral vein.\nOutput data from the ^13CO2 analyzer were AD-converted and input to a personal computer (Apple Power Macintosh 8500). […]\nΔ^13C (‰) was calculated from the ^13C level in the exhaled CO2 at each time point (^13Ctmin) and the ^13C level in the standard CO2 (^13Cstd) according to the following equation: Δ^13C(‰)=[(^13Ctmin−^13C0min)/^13Cstd]×1000"}, "pancreatic protease": {"system": "pancreatic protease", "test": "Bz-Arg-[1-13C]Ala breath test", "settings": "rats", "method": "The pharmacological effect of camostat mesylate is the inhibition of pancreatic protease. Bz-Arg-[1-^13C]Ala (see Production Example 3) which is a substrate for pancreatic protease is provided as a pharmacological effect diagnostic reagent and a screening reagent. […] The results of the Bz-Arg-[1-^13C]Ala breath test were as follows: in the both groups, the Δ^13C increased linearly until at the time point of 15 minutes after the administration; twenty minutes after the administration, the Δ^13C reached 41.29±7.49‰ in the control group (n=3), while the Δ^13C reached 27.64±4.86‰ in the administration group (n=3); thus, the Δ^13C decreased in the administration group (FIG. 7). From the results, it was confirmed that the function of the target enzyme for camostat mesylate was inhibited under the camostat mesylate administration conditions of the present example."}},
  "note": "Structures can show the parent of a compound that is named as a salt.",
  "data": [
    {"compound": "C[C@H]1O[C@H](O[C@H]2[C@H](O)[C@@H](O)[C@@H](O[C@H]3[C@H](O)[C@@H](O)C(O)O[C@@H]3CO)O[C@@H]2CO)[C@H](O)[C@@H](O)[C@@H]1N[C@H]1C=C(CO)[C@@H](O)[C@H](O)[C@H]1O", "note": "(stereo partly shown) [acarbose]", "values": [
      {"measurement": "Δ13C in 20 minutes", "setting": "α-glucosidase; acarbose 2 mg/kg oral concurrently with Glc-[U-13C]Glc 25 mg/kg oral", "result": "37.06 ±0.16 ‰"},
      {"measurement": "Δ13C in 20 minutes", "setting": "α-glucosidase; acarbose 4 mg/kg oral concurrently with Glc-[U-13C]Glc 25 mg/kg oral", "result": "26.01 ±0.38 ‰"},
      {"measurement": "Δ13C in 20 minutes", "setting": "α-glucosidase; acarbose 10 mg/kg oral concurrently with Glc-[U-13C]Glc 25 mg/kg oral", "result": "9.86±0.66 ‰"}
    ]},
    {"compound": "NC(CO)C(=O)NNCc1ccc(O)c(O)c1O", "note": "(stereo not shown) [benserazide, benserazide hydrochloride]", "values": [
      {"measurement": "inhibition at 50 mg/kg", "setting": "DOPA decarboxylase; rat, ip, benserazide 50 mg/kg i.p. three times, [1-13C]DOPA breath test, read-out: inhibition of the function of the target enzyme", "result": "~100", "unit": "%"},
      {"measurement": "Δ13C (degree of increase of the 13C level in exhaled CO2)", "setting": "DOPA decarboxylase; benserazide hydrochloride 50 mg/kg i.p. three times, [1-13C]DOPA 50 mg/kg femoral vein, 20 minutes after the administration", "result": "about 5 ‰"}
    ]},
    {"compound": "CN(C)C(=O)COC(=O)Cc1ccc(OC(=O)c2ccc(NC(=N)N)cc2)cc1", "note": "[camostat mesylate]", "values": [
      {"measurement": "function of the target enzyme", "setting": "pancreatic protease; camostat mesylate 20 mg/kg oral", "result": "inhibited"},
      {"measurement": "Δ13C twenty minutes after the administration", "setting": "pancreatic protease; camostat mesylate 20 mg/kg oral concurrently with Bz-Arg-[1-13C]Ala 12.2 mg/kg oral, n=3", "result": "27.64±4.86 ‰"}
    ]}
  ]
}
